Reference: the supplement of paper PMC10307832

Columns and labels:
Assay in all cases: relative viability (nuclei count vs DMSO), 5 days (fraction); higher = more cells survive
[1] = compound: Cc1cnc(CNC(=O)c2c(=O)c3ccc(N4CCCN(C)CC4)nc3n3c2sc2ccccc23)cn1 [CX-5461] + CC1(C)CCC(c2ccc(Cl)cc2)=C(CN2CCN(c3ccc(C(=O)NS(=O)(=O)c4ccc(N[C@H](CCN5CCOCC5)CSc5ccccc5)c(S(=O)(=O)C(F)(F)F)c4)cc3)CC2)C1 [Navitoclax] (partner 0.5 µM)
Summary of the method: (§1)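 Values are medians from duplicate plates. Each reflects relative viability, defined as the nuclei count of treated wells over that of vehicle wells. Lung cancer cell lines in 1536-well plates were pin-tool dosed one day after seeding with one drug alone or with a fixed anchor-drug dose plus five library-drug doses (not always all listed) in √10 steps, then fixed, stained and imaged at 4× after 5 days.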

[2] = compound: Cc1cnc(CNC(=O)c2c(=O)c3ccc(N4CCCN(C)CC4)nc3n3c2sc2ccccc23)cn1 [CX-5461] + CC(=O)c1c(C)c2cnc(Nc3ccc(N4CCNCC4)cn3)nc2n(C2CCCC2)c1=O [Palbociclib] (partner 0.5 µM)
Summary of the method: as §1

[3] = compound: Cc1cnc(CNC(=O)c2c(=O)c3ccc(N4CCCN(C)CC4)nc3n3c2sc2ccccc23)cn1 [CX-5461] + C[C@]1(O)C[C@@H](c2nc(-c3ccc4ccc(-c5ccccc5)nc4c3)c3c(N)nccn32)C1 [Linsitinib] (partner 1 µM)
Summary of the method: as §1

[4] = compound: Cc1cnc(CNC(=O)c2c(=O)c3ccc(N4CCCN(C)CC4)nc3n3c2sc2ccccc23)cn1 [CX-5461] + CC(=O)Nc1cccc(-n2c(=O)n(C3CC3)c(=O)c3c(Nc4ccc(I)cc4F)n(C)c(=O)c(C)c32)c1 [Trametinib] (partner 0.02 µM)
Summary of the method: as §1

Row | Cell Line | relative viability ([1]; first compound 0.01 µM) | relative viability ([1]; first compound 0.03162 µM) | relative viability ([1]; first compound 0.1 µM) | relative viability ([1]; first compound 0.3162 µM) | relative viability ([1]; first compound 1 µM) | relative viability ([2]; first compound 0.01 µM) | relative viability ([2]; first compound 0.03162 µM) | relative viability ([2]; first compound 0.1 µM) | relative viability ([2]; first compound 0.3162 µM) | relative viability ([2]; first compound 1 µM) | relative viability ([3]; first compound 0.01 µM) | relative viability ([3]; first compound 0.03162 µM) | relative viability ([3]; first compound 0.1 µM) | relative viability ([3]; first compound 0.3162 µM) | relative viability ([3]; first compound 1 µM) | relative viability ([4]; first compound 0.01 µM) | relative viability ([4]; first compound 0.03162 µM) | relative viability ([4]; first compound 0.1 µM) | relative viability ([4]; first compound 0.3162 µM) | relative viability ([4]; first compound 1 µM)
1 | NCI-H1755 | 0.979 | 0.992 | 1.01 | 0.997 | 0.883 | 0.434 | 0.449 | 0.431 | 0.447 | 0.466 | 0.983 | 1.05 | 0.968 | 0.993 | 1.01 | 0.826 | 0.796 | 0.836 | 0.719 | 0.753
2 | NCI-H1792 | 0.657 | 0.674 | 0.696 | 0.692 | 0.468 | 0.608 | 0.719 | 0.736 | 0.736 | 0.602 | 0.54 | 0.58 | 0.485 | 0.565 | 0.545 | 0.542 | 0.434 | 0.407 | 0.401 | 0.52
3 | NCI-H1793 | 0.485 | 0.306 | 0.37 | 0.485 | 0.443 | 0.307 | 0.306 | 0.345 | 0.32 | 0.283 | 1.05 | 0.913 | 0.941 | 0.913 | 0.752 | 0.386 | 0.519 | 0.364 | 0.411 | 0.353
4 | NCI-H1915 | 0.799 | 0.784 | 0.809 | 0.743 | 0.758 | 0.542 | 0.534 | 0.564 | 0.53 | 0.543 | 1.1 | 1.13 | 1.12 | 1.12 | 1.16 | 0.285 | 0.326 | 0.327 | 0.315 | 0.307
5 | NCI-H1944 | 1.06 | 1.09 | 1.01 |  | 1.02 | 0.335 | 0.362 | 0.338 | 0.294 | 0.317 | 1.27 | 1.26 | 1.05 |  | 1.18 | 0.47 | 0.406 | 0.419 | 0.314 | 0.448
6 | NCI-H1975 | 1.29 | 1.1 | 1.09 | 1.25 | 0.871 | 0.788 | 0.553 | 0.665 | 0.826 | 0.382 | 1.06 | 0.983 | 0.784 | 1 | 0.629 | 0.39 | 0.317 | 0.367 | 0.395 | 0.298
7 | NCI-H1993 | 0.946 | 1 | 0.887 | 0.871 | 0.922 | 0.686 | 0.627 | 0.699 | 0.583 | 0.614 | 0.743 | 0.681 | 0.722 | 0.712 | 0.643 | 0.525 | 0.448 | 0.476 | 0.431 | 0.544
8 | NCI-H2009 | 1.18 | 1.19 | 1.08 | 1.18 | 0.765 | 0.214 | 0.201 | 0.272 | 0.215 | 0.16 | 1.24 | 1.14 | 1.18 | 1.19 | 0.804 | 0.341 | 0.271 | 0.286 | 0.301 | 0.243
